In ChEMBL document CHEMBL3885861, “Open TG-GATES”:

Organism: Rattus norvegicus
Test: Open TG-GATES - Regimen: Daily Repeat
Type: toxicity, organism-based, Sprague-Dawley
Set-up: regimen Daily Repeat, gender Male, age 6 weeks
Details: in vivo, po, 100 mg/kg, route gavage, dose level Low; for APTT / Bas / Eos / Fbg / Hb / Ht / Lym / MCH / MCHC / MCV / Mono / Neu / PT / Plat / RBC / Ret / WBC: tissue Blood; for KIDNEY_L / KIDNEY_R / KIDNEY_TOTAL: tissue Kidney; for LIVER: tissue Liver; for A/G / ALP / ALT / AST / BUN / CRE / Ca / Cl / DBIL / GLC / IP / K / LDH / Na / PL / RALB / TBIL / TC / TG / TP / gamma-GTP: tissue Plasma

For CN(C)[C@@H]1C(O)=C(C(N)=O)C(=O)[C@@]2(O)C(O)=C3C(=O)c4c(O)cccc4[C@@](C)(O)[C@H]3C[C@@H]12 [TETRACYCLINE], the TERMINAL_BW (72 h, time 3 day) was 197.6 g, the APTT (72 h, time 3 day) was 16.3 s and the Bas (72 h, time 3 day) was 0%. For the same compound, the Eos (72 h, time 3 day) was 0.8%, the Fbg (72 h, time 3 day) was 225.6 mg/dL and the Hb (72 h, time 3 day) was 13.2 g/dL. For the same compound, the Ht (72 h, time 3 day) was 39.6%, the Lym (72 h, time 3 day) was 85% and the MCH (72 h, time 3 day) was 21.7 pg. It also gave an MCHC (72 h, time 3 day) of 33.4%, an MCV (72 h, time 3 day) of 65.1 fL and a Mono (72 h, time 3 day) of 5.2%. It also gave a Neu (72 h, time 3 day) of 9%, a PT (72 h, time 3 day) of 12.1 s and a Plat (72 h, time 3 day) of 103.9 x10_4/uL. For the same compound, the RBC (72 h, time 3 day) was 608.6 x10_4/ul, the Ret (72 h, time 3 day) was 7.9% and the WBC (72 h, time 3 day) was 100.3 x10_2/uL. It also gave a KIDNEY_L (72 h, time 3 day) of 0.9 g, a KIDNEY_R (72 h, time 3 day) of 0.9 g and a KIDNEY_TOTAL (72 h, time 3 day) of 1.8 g. For the same compound, the LIVER (72 h, time 3 day) was 9.3 g, the A/G (72 h, time 3 day) was 2.1 and the ALP (72 h, time 3 day) was 900.4 IU/L. The ALT (72 h, time 3 day) was 40.6 IU/L, the AST (72 h, time 3 day) was 73.4 IU/L and the BUN (72 h, time 3 day) was 16.8 mg/dL. For the same compound, the CRE (72 h, time 3 day) was 0.6 mg/dL, the Ca (72 h, time 3 day) was 11.2 mg/dL and the Cl (72 h, time 3 day) was 106.4 meq/L. It also gave a DBIL (72 h, time 3 day) of 0 mg/dL, a GLC (72 h, time 3 day) of 195.6 mg/dL and an IP (72 h, time 3 day) of 9 mg/dL. The K (72 h, time 3 day) was 4.8 meq/L, the LDH (72 h, time 3 day) was 134.4 IU/L and the Na (72 h, time 3 day) was 140 meq/L. The PL (72 h, time 3 day) was 145.2 mg/dL, the RALB (72 h, time 3 day) was 3.9 g/dL and the TBIL (72 h, time 3 day) was 0.3 mg/dL. It also gave a TC (72 h, time 3 day) of 86.2 mg/dL, a TG (72 h, time 3 day) of 48.8 mg/dL and a TP (72 h, time 3 day) of 5.7 g/dL. It also gave a gamma-GTP (72 h, time 3 day) of 0.8 IU/L, a TERMINAL_BW ([…], time 7 day) of 227.4 g and a TERMINAL_BW ([…], time 14 day) of 271.9 g. It also gave a TERMINAL_BW ([…], time 28 day) of 346.9 g, an APTT ([…], time 7 day) of 16.7 s and a Bas ([…], time 7 day) of 0%. The Eos ([…], time 7 day) was 1%, the Fbg ([…], time 7 day) was 241 mg/dL and the Hb ([…], time 7 day) was 13.5 g/dL. For the same compound, the Ht ([…], time 7 day) was 40.2%, the Lym ([…], time 7 day) was 85.2% and the MCH ([…], time 7 day) was 21 pg. It also gave an MCHC ([…], time 7 day) of 33.6%, an MCV ([…], time 7 day) of 62.3 fL and a Mono ([…], time 7 day) of 6.2%. The Neu ([…], time 7 day) was 8%, the PT ([…], time 7 day) was 12 s and the Plat ([…], time 7 day) was 101.8 x10_4/uL. The RBC ([…], time 7 day) was 645.8 x10_4/ul, the Ret ([…], time 7 day) was 6.6% and the WBC ([…], time 7 day) was 114 x10_2/uL. For the same compound, the APTT ([…], time 14 day) was 16.5 s, the Bas ([…], time 14 day) was 0% and the Eos ([…], time 14 day) was 0.6%. It also gave a Fbg ([…], time 14 day) of 229.6 mg/dL, a Hb ([…], time 14 day) of 13.9 g/dL and a Ht ([…], time 14 day) of 41.7%. It also gave a Lym ([…], time 14 day) of 91.2%, an MCH ([…], time 14 day) of 20.9 pg and an MCHC ([…], time 14 day) of 33.5%. The MCV ([…], time 14 day) was 62.5 fL, the Mono ([…], time 14 day) was 2.4% and the Neu ([…], time 14 day) was 6.2%. It also gave a PT ([…], time 14 day) of 11.7 s, a Plat ([…], time 14 day) of 108.7 x10_4/uL and an RBC ([…], time 14 day) of 667.2 x10_4/ul. For the same compound, the Ret ([…], time 14 day) was 5.5%, the WBC ([…], time 14 day) was 180.6 x10_2/uL and the APTT ([…], time 28 day) was 17.5 s. The Bas ([…], time 28 day) was 0%, the Eos ([…], time 28 day) was 1% and the Fbg ([…], time 28 day) was 230.2 mg/dL. The Hb ([…], time 28 day) was 14.8 g/dL, the Ht ([…], time 28 day) was 44.5% and the Lym ([…], time 28 day) was 90%. The MCH ([…], time 28 day) was 19 pg, the MCHC ([…], time 28 day) was 33.4% and the MCV ([…], time 28 day) was 57.1 fL. It also gave a Mono ([…], time 28 day) of 3.8%, a Neu ([…], time 28 day) of 5.2% and a PT ([…], time 28 day) of 12.1 s. It also gave a Plat ([…], time 28 day) of 81 x10_4/uL, an RBC ([…], time 28 day) of 780 x10_4/ul and a Ret ([…], time 28 day) of 3.2%. It also gave a WBC ([…], time 28 day) of 163.8 x10_2/uL, a KIDNEY_L ([…], time 7 day) of 1 g and a KIDNEY_R ([…], time 7 day) of 1.1 g. It also gave a KIDNEY_TOTAL ([…], time 7 day) of 2.1 g, a KIDNEY_L ([…], time 14 day) of 1.1 g and a KIDNEY_R ([…], time 14 day) of 1.1 g. The KIDNEY_TOTAL ([…], time 14 day) was 2.2 g, the KIDNEY_L ([…], time 28 day) was 1.2 g and the KIDNEY_R ([…], time 28 day) was 1.2 g. The KIDNEY_TOTAL ([…], time 28 day) was 2.4 g, the LIVER ([…], time 7 day) was 11.4 g and the LIVER ([…], time 14 day) was 11.8 g. It also gave an LIVER ([…], time 28 day) of 13.6 g, an A/G ([…], time 7 day) of 2.1 and an ALP ([…], time 7 day) of 738 IU/L. It also gave an ALT ([…], time 7 day) of 37.3 IU/L, an AST ([…], time 7 day) of 71 IU/L and a BUN ([…], time 7 day) of 19.7 mg/dL. The CRE ([…], time 7 day) was 0.6 mg/dL, the Ca ([…], time 7 day) was 11.4 mg/dL and the Cl ([…], time 7 day) was 105 meq/L. For the same compound, the DBIL ([…], time 7 day) was 0.0033 mg/dL, the GLC ([…], time 7 day) was 181.3 mg/dL and the IP ([…], time 7 day) was 9.9 mg/dL. It also gave a K ([…], time 7 day) of 5 meq/L, an LDH ([…], time 7 day) of 105.7 IU/L and a Na ([…], time 7 day) of 140 meq/L. For the same compound, the PL ([…], time 7 day) was 164.7 mg/dL, the RALB ([…], time 7 day) was 3.9 g/dL and the TBIL ([…], time 7 day) was 0.3 mg/dL. For the same compound, the TC ([…], time 7 day) was 86.3 mg/dL, the TG ([…], time 7 day) was 87.7 mg/dL and the TP ([…], time 7 day) was 5.9 g/dL. The gamma-GTP ([…], time 7 day) was 1.7 IU/L, the A/G ([…], time 14 day) was 2.3 and the ALP ([…], time 14 day) was 983.4 IU/L. The ALT ([…], time 14 day) was 35.8 IU/L, the AST ([…], time 14 day) was 66.6 IU/L and the BUN ([…], time 14 day) was 17.2 mg/dL. The CRE ([…], time 14 day) was 0.6 mg/dL, the Ca ([…], time 14 day) was 10.9 mg/dL and the Cl ([…], time 14 day) was 104.4 meq/L. It also gave a DBIL ([…], time 14 day) of 0.002 mg/dL, a GLC ([…], time 14 day) of 177 mg/dL and an IP ([…], time 14 day) of 8.3 mg/dL. The K ([…], time 14 day) was 4.6 meq/L, the LDH ([…], time 14 day) was 79.2 IU/L and the Na ([…], time 14 day) was 141 meq/L. For the same compound, the PL ([…], time 14 day) was 149.6 mg/dL, the RALB ([…], time 14 day) was 4.1 g/dL and the TBIL ([…], time 14 day) was 0.4 mg/dL. The TC ([…], time 14 day) was 71 mg/dL, the TG ([…], time 14 day) was 107.4 mg/dL and the TP ([…], time 14 day) was 5.9 g/dL. It also gave a gamma-GTP ([…], time 14 day) of 2.6 IU/L, an A/G ([…], time 28 day) of 1.7 and an ALP ([…], time 28 day) of 765.4 IU/L. The ALT ([…], time 28 day) was 30.2 IU/L, the AST ([…], time 28 day) was 61.8 IU/L and the BUN ([…], time 28 day) was 19.8 mg/dL. It also gave a CRE ([…], time 28 day) of 0.6 mg/dL, a Ca ([…], time 28 day) of 10.8 mg/dL and a Cl ([…], time 28 day) of 107.2 meq/L. For the same compound, the DBIL ([…], time 28 day) was 0.032 mg/dL, the GLC ([…], time 28 day) was 173.8 mg/dL and the IP ([…], time 28 day) was 7.5 mg/dL. The K ([…], time 28 day) was 4.2 meq/L, the LDH ([…], time 28 day) was 88.2 IU/L and the Na ([…], time 28 day) was 141.4 meq/L. It also gave a PL ([…], time 28 day) of 154 mg/dL, an RALB ([…], time 28 day) of 3.8 g/dL and a TBIL ([…], time 28 day) of 0.3 mg/dL. It also gave a TC ([…], time 28 day) of 73.8 mg/dL, a TG ([…], time 28 day) of 141.8 mg/dL and a TP ([…], time 28 day) of 6.2 g/dL. For the same compound, the gamma-GTP ([…], time 28 day) was 1.2 IU/L.
